Reference: ChEMBL document CHEMBL4177563, “The medicinal chemistry of Chikungunya virus” (Bioorg Med Chem, 2017)
Converted amounts (≈) assume the structure as drawn.

Key:
[1] = tested on: Chikungunya virus; assay: Antiviral activity against Chikungunya virus infected in African green monkey Vero cells assessed as inhibition of virus-induced cytopathogenic effect measured on day 6 to 7 post infection by MTS dye-based microscopic analysis; assay type: functional, organism-based; conditions: 144 h
[2] = Cytotoxicity against African green monkey Vero cells assessed as reduction in cell viability measured on day 6 to 7 post infection by MTS dye-based microscopic analysis; conditions: chlorocebus sabaeus
[3] = tested on: Chikungunya virus; assay: Antiviral activity against Chikungunya virus infected in African green monkey Vero cells after 72 hrs by MTT dye-based assay; assay type: functional, organism-based
[4] = Cytotoxicity against BHK cells assessed as reduction in cell viability after 48 hrs in presence of ATP by Celltiter-Glo luminescent assay; assay type: cell-based, Mesocricetus auratus; conditions: hamster
[5] = tested on: Chikungunya virus; assay: Antiviral activity against Chikungunya virus LR2006 OPY1 infected in BHK cells measured at 14 hrs post infection by luciferase reporter gene assay; assay type: functional, organism-based
[6] = Selectivity index, ratio of CC50 for BHK cells to IC50 for Chikungunya virus LR2006 OPY1; assay type: toxicity; conditions: hamster, read-out: Ratio CC50/IC50
[7] = tested on: Chikungunya virus; assay: Antiviral activity against Chikungunya virus 899 infected in African green monkey Vero cells by MTS assay; assay type: functional, organism-based; conditions: Chikungunya virus, 899, Vero
[8] = Cytotoxicity against African green monkey Vero cells assessed as reduction in cell viability after 18 hrs by […]; assay type: cell-based; conditions: chlorocebus sabaeus
[9] = Selectivity index, ratio of CC50 for African green monkey Vero cells to EC50 for Chikungunya virus 899; assay type: toxicity; conditions: read-out: Ratio CC50/EC50
[10] = Selectivity index, ratio of CC50 for African green monkey Vero cells to IC50 for Chikungunya virus MY/065/08/FN295485; assay type: toxicity; conditions: read-out: Ratio IC50
[11] = tested on: Chikungunya virus; assay: Antiviral activity against Chikungunya virus MY/065/08/FN295485 infected in African green monkey Vero cells assessed as reduction in virus yield after 48 hrs by titration assay; assay type: functional, organism-based; conditions: MY/065/08/FN295485, Vero
[12] = Binding affinity to Chikungunya virus […]
[13] = tested on: Chikungunya virus; assay: Antiviral activity against Chikungunya virus infected in African green monkey Vero cells; assay type: functional, organism-based

`C=C(C)[C@@]1(O)[C@@H]2OC3(c4ccccc4)O[C@H]1[C@@H](C)[C@]1(O3)C3=CC(=C(Cl)Cl)[C@H](OC(=O)c4ccccc4)[C@@]3(O)[C@H](OC(C)=O)[C@@]3(COC(C)=O)O[C@H]3[C@@H]21` gave an EC50 [1] of 1500 nM and a CC50 [2] of 35 µM.

With `O=c1cc(-c2ccc(O)cc2)oc2cc(O)cc(O)c12` [APIGENIN] the IC50 [3] was 22.5 to 127 µM.

In the case of `CN(C)CCCN1c2ccccc2Sc2ccc(Cl)cc21` [CHLORPROMAZINE], the CC50 at 48 h [4] is reported as 67.3 µM, the IC50 [5] is reported as 15.7 µM and the selectivity ratio [6] is reported as 4.5.

`Cc1ccc2nc(SCc3cc(=O)oc4cc(OS(=O)(=O)c5ccc([N+](=O)[O-])cc5)ccc34)[nH]c(=O)c2c1` showed an EC50 [7] greater than 199 µM.

For `Cc1cnc(SCc2cc(=O)oc3cc(O)ccc23)[nH]c1=O`, the EC50 [7] was greater than 316 µM.

For `OCCN1CCN(CCCN2c3ccccc3Sc3ccc(Cl)cc32)CC1` [PERPHENAZINE], the CC50 at 48 h [4] was 155 µM, the IC50 [5] was 25.1 µM and the selectivity ratio [6] was 6.2.

`Cc1ccc(COc2ccc3c(CSc4nc5ccccc5c(=O)[nH]4)cc(=O)oc3c2)cc1` showed an EC50 [7] greater than 2.19 µM and a CC50 at 18 h [8] of 102 µM.

In the case of `CN1CCC(CN2c3ccccc3Sc3ccccc32)C1` (stereo not given) [METHDILAZINE], the CC50 at 48 h [4] is reported as 63.8 µM, the IC50 [5] is reported as 11.3 µM and the selectivity ratio [6] is reported as 5.6.

In the case of `O=C1CCN=C(SCc2cc(=O)oc3cc(OS(=O)(=O)c4ccccc4[N+](=O)[O-])ccc23)N1`, the EC50 [7] is reported as 13 µM, the CC50 at 18 h [8] is reported as 75.2 µM and the selectivity ratio [9] is reported as 5.8.

`O=c1cc(CSc2nc3ccccc3c(=O)[nH]2)c2ccc(OCc3ccccc3)cc2o1` gave an EC50 [7] greater than 45.2 µM.

In the case of `O=c1c(O)c(-c2ccc(O)c(O)c2)oc2cc(O)c(O)c(O)c12` [QUERCETAGETIN], the selectivity ratio [10] is reported as 16.3, the IC50 [11] is reported as 25300 µM and the Ki [12] is reported as 489 nM.

`O=c1c(O)c(-c2ccc(O)c(O)c2)oc2cc(O)ccc12` [FISETIN] showed a selectivity ratio [10] of 23 and an IC50 [11] of 29.5 µM.

`Cc1ccc2nc(SCc3cc(=O)oc4cc(OS(=O)(=O)c5ccccc5[N+](=O)[O-])ccc34)[nH]c(=O)c2c1` gave an EC50 [7] of 19 µM, a CC50 at 18 h [8] of 107 µM and a selectivity ratio [9] of 5.6.

Work on `Cc1ccc(S(=O)(=O)Oc2ccc3c(CSc4nc5ccccc5c(=O)[nH]4)cc(=O)oc3c2)cc1` yielded an EC50 [7] of 10.2 µM, a CC50 at 18 h [8] of 117 µM and a selectivity ratio [9] of 11.5.

In the case of `CC1CCCCCCCC(C)C(=O)O[C@H]2/C(=C/Cl)C=C3[C@]45OC6(c7ccccc7)O[C@H]([C@@H]4[C@@H]4O[C@]4(CO)C[C@@]32O)[C@@](O)([C@@H](O6)[C@H]5C)C(O)(COC(=O)c2ccccc2)C1` (stereo not given in full), the EC50 [1] is reported as 3900 nM and the CC50 [2] is reported as 10.5 µM.

`Cc1ccc(COc2ccc3c(CSc4ncc(C)c(=O)[nH]4)cc(=O)oc3c2)cc1` gave an EC50 [7] greater than 48 µM.

`O=c1ccnc(SCc2cc(=O)oc3cc(OCc4ccc([N+](=O)[O-])cc4)ccc23)[nH]1` showed an EC50 [7] of 4.6 µM, a CC50 at 18 h [8] of 13.8 µM and a selectivity ratio [9] of 3.

For `O=C1C[C@@H](c2ccc(O)cc2)Oc2cc(O)cc(O)c21` [NARINGENIN], the Ki [12] was 685 nM.

For `COc1cc(C2Oc3cc([C@H]4Oc5cc(O)cc(O)c5C(=O)[C@@H]4O)ccc3OC2CO)ccc1O` (stereo not given in full) [SILIBININ], the IC50 [3] was 22.5 to 127 µM.

`O=c1cc(CSc2nc(O)c3ccccc3n2)c2ccc(O)cc2o1` showed an EC50 [7] of 192 µM, a CC50 at 18 h [8] greater than 284 µM and a selectivity ratio [9] greater than 1.5.

With `O=C1CCN=C(SCc2cc(=O)oc3cc(OS(=O)(=O)c4ccc([N+](=O)[O-])cc4)ccc23)N1` the EC50 [7] was greater than 205 µM.

In the case of `O=c1cc(CSc2nc3ccccc3c(=O)[nH]2)c2ccc(OS(=O)(=O)c3ccccc3[N+](=O)[O-])cc2o1`, the EC50 [7] is reported as 17.2 µM, the CC50 at 18 h [8] is reported as 144 µM and the selectivity ratio [9] is reported as 8.8.

In the case of `O=C1CCN=C(SCc2cc(=O)oc3cc(OS(=O)(=O)c4ccc(F)cc4)ccc23)N1`, the EC50 [7] is reported as 128 µM and the CC50 at 18 h [8] is reported as 111 µM.

Molecule `Cc1cnc(SCc2cc(=O)oc3cc(OCc4ccc(F)cc4)ccc23)[nH]c1=O` has an EC50 [7] of 45.1 µM, a CC50 at 18 h [8] of 104 µM and a selectivity ratio [9] of 2.3.

For `O=c1ccnc(SCc2cc(=O)oc3cc(OCc4ccccc4)ccc23)[nH]1`, the EC50 [7] was greater than 255 µM.

For `Cc1ccc(S(=O)(=O)Oc2ccc3c(CSC4=NCCC(=O)N4)cc(=O)oc3c2)cc1`, the EC50 [7] was 23.1 µM, the CC50 at 18 h [8] was 60.2 µM and the selectivity ratio [9] was 2.6.

`CC1CCCCCCCC(C)C(=O)O[C@H]2/C(=C/Cl)C=C3[C@]45OC6(c7ccccc7)O[C@H]([C@@H]4[C@@H]4O[C@]4(CO)C[C@@]32O)[C@@](O)([C@@H](O6)[C@H]5C)C(O)(COC(=O)c2ccccc2O)C1` (stereo not given in full) gave an EC50 [1] of 1900 nM and a CC50 [2] of 4.6 µM.

With `Cc1ccc(S(=O)(=O)Oc2ccc3c(CSc4nc5ccc(C)cc5c(=O)[nH]4)cc(=O)oc3c2)cc1` the EC50 [7] was 26.4 µM, the CC50 at 18 h [8] was 114 µM and the selectivity ratio [9] was 4.3.

`O=c1ccnc(SCc2cc(=O)oc3cc(O)ccc23)[nH]1` showed an EC50 [7] greater than 331 µM.

Work on `O=c1cc(CSc2nc3ccccc3c(=O)[nH]2)c2ccc(OS(=O)(=O)c3ccccc3)cc2o1` yielded an EC50 [7] of 19.1 µM, a CC50 at 18 h [8] of 178 µM and a selectivity ratio [9] of 9.3.

In the case of `CCN(CC)C(C)CN1c2ccccc2Sc2ccccc21` (stereo not given) [ETHOPROPAZINE], the CC50 at 48 h [4] is reported as 167 µM, the IC50 [5] is reported as 16 µM and the selectivity ratio [6] is reported as 10.4.

With `O=c1cc(CSc2nc3ccccc3c(=O)[nH]2)c2ccc(OS(=O)(=O)c3ccc(F)cc3)cc2o1` the EC50 [7] was 18.4 µM, the CC50 at 18 h [8] was 30 µM and the selectivity ratio [9] was 1.6.

`O=C(O)[C@H]1O[C@@H](Oc2cc3oc(-c4ccccc4)cc(=O)c3c(O)c2O)[C@H](O)[C@@H](O)[C@@H]1O` [BAICALIN] showed a selectivity ratio [10] of 188, an IC50 [11] of 7 µM and a Ki [12] of 64 nM.

Molecule `C=C(C)[C@@]1(Oc2ccccc2)[C@@H]2OC3(c4ccccc4)O[C@H]1[C@@H](C)[C@]1(O3)C3=CC(=C(Cl)Cl)[C@H](c4ccccc4)[C@@]3(O)C[C@@]3(C)O[C@H]3[C@@H]21` has an EC50 [1] of 3000 nM and a CC50 [2] of 23.1 µM.

In the case of `CC1CCCCCCCC(C)C(=O)O[C@H]2/C(=C/Cl)C=C3[C@]45OC6(c7ccccc7)O[C@H]([C@@H]4[C@@H]4O[C@]4(CO)C[C@@]32O)[C@@](O)([C@@H](O6)[C@H]5C)C(C)(O)C1` (stereo not given in full), the EC50 [1] is reported as 2500 nM and the CC50 [2] is reported as 5.3 µM.

Molecule `C=C[C@H]1CN2CC[C@H]1C[C@H]2[C@H](O)c1ccnc2ccc(OC)cc12` [QUININE] has an IC50 [13] of 0.1 µg/mL (≈ 0.308 µM).

Molecule `O=C1CCN=C(SCc2cc(=O)oc3cc(OS(=O)(=O)c4ccccc4)ccc23)N1` has an EC50 [7] of 57.4 µM.

Molecule `CCSc1ccc2c(c1)N(CCCN1CCN(C)CC1)c1ccccc1S2` [THIETHYLPERAZINE] has a CC50 at 48 h [4] of 83.1 µM, an IC50 [5] of 15 µM and a selectivity ratio [6] of 5.5.

Molecule `Cc1ccc2nc(SCc3cc(=O)oc4cc(OS(=O)(=O)c5ccc(F)cc5)ccc34)[nH]c(=O)c2c1` has an EC50 [7] of 116 µM and a CC50 at 18 h [8] of 86.4 µM.

`O=c1cc(-c2ccccc2)oc2cc(O)cc(O)c12` [CHRYSIN] gave an IC50 [3] of 22.5 to 127 µM.

`C=C(C)[C@@]1(Oc2ccccc2)[C@@H]2OC3(c4ccccc4)O[C@H]1[C@@H](C)[C@]1(O3)C3=CC(=C(Cl)Cl)C[C@@]3(O)C[C@@]3(Cc4ccccc4)O[C@H]3[C@@H]21` showed an EC50 [1] of 2600 nM and a CC50 [2] of 93 µM.

`Cc1cnc(SCc2cc(=O)oc3cc(OCc4ccccc4)ccc23)[nH]c1=O` showed an EC50 [7] greater than 246 µM.

Molecule `Cc1ccc2nc(SCc3cc(=O)oc4cc(OS(=O)(=O)c5ccccc5)ccc34)[nH]c(=O)c2c1` has an EC50 [7] of 58 µM, a CC50 at 18 h [8] of 126 µM and a selectivity ratio [9] of 2.2.

`O=c1cc(CSc2nc3ccccc3c(=O)[nH]2)c2ccc(OS(=O)(=O)c3ccc([N+](=O)[O-])cc3)cc2o1` showed an EC50 [7] of 54.5 µM, a CC50 at 18 h [8] of 117 µM and a selectivity ratio [9] of 2.2.

`O=c1cc(-c2ccc(O)c(O)c2)oc2cc(O)cc(O)c12` [LUTEOLIN] showed an IC50 [3] of 22.5 to 127 µM.
